Experimental data published in US4868321A, “Isothiocyanate intermediates” (FMC Corporation, priority 1988, dated 1989).
Structures can show the parent of a compound that is named as a salt.

Tests used:
Format in all cases: in vivo
[1] = tested on: Field Bindweed; test: Postemergence Herbicidal Activity, Field Bindweed; settings: post-emergence, 8.0 kg/ha
From the text: (§1) The herbicidal data in the following Tables 3 and 4 was obtained in the manner described in PCT published application no. WO 85/01939, previously mentioned, usually employing solutions of the herbicidal compound in 50/50 acetone/water mixtures. In those tables, the test compounds are identified by numbers which correspond to those in Table 1, "kg/ha" is kilograms per hectare, and "% C" is percent control.

[2] = tested on: Cotton; test: Postemergence Herbicidal Activity, Cotton; settings: Gossypium hirsutum, post-emergence
From the text: as §1

[3] = tested on: Soybean; test: Postemergence Herbicidal Activity, Soybean; settings: Glycine max, post-emergence
From the text: (§2) The herbicidal data in the following Tables 3 and 4 was obtained in the manner described in PCT published application no. […] In those tables, the test compounds are identified by numbers which correspond to those in Table 1, "kg/ha" is kilograms per hectare, and "% C" is percent control.

[4] = tested on: Rice; test: Preemergence Herbicidal Activity, Rice; settings: Oryza sativa, pre-emergence
From the text: as §2

[5] = tested on: Johnsongrass; test: Preemergence Herbicidal Activity, Johnsongrass; settings: Sorghum halepense, pre-emergence
From the text: as §2

[6] = tested on: Field Corn; test: Postemergence Herbicidal Activity, Field Corn; settings: Zea mays, post-emergence
From the text: as §2

[7] = tested on: Barnyardgrass; test: Preemergence Herbicidal Activity, Barnyardgrass; settings: Echinochloa crus-galli, pre-emergence
From the text: as §2

[8] = tested on: Cotton; test: Preemergence Herbicidal Activity, Cotton; settings: Gossypium hirsutum, pre-emergence
From the text: as §1

[9] = tested on: Field Corn; test: Preemergence Herbicidal Activity, Field Corn; settings: Zea mays, pre-emergence
From the text: as §2

[10] = tested on: Wheat; test: Postemergence Herbicidal Activity, Wheat; settings: Triticum aestivum, post-emergence
From the text: as §2

[11] = tested on: Soybean; test: Preemergence Herbicidal Activity, Soybean
From the text: as §2

[12] = tested on: Morningglory; test: Postemergence Herbicidal Activity, Morningglory
From the text: as §1

[13] = tested on: Green Foxtail; test: Postemergence Herbicidal Activity, Green Foxtail; settings: Setaria viridis, post-emergence
From the text: as §2

[14] = tested on: Velvetleaf; test: Preemergence Herbicidal Activity, Velvetleaf; settings: Abutilon theophrasti, pre-emergence
From the text: as §1

[15] = tested on: Barnyardgrass; test: Postemergence Herbicidal Activity, Barnyardgrass; settings: Echinochloa crus-galli, post-emergence
From the text: as §2

[16] = tested on: Johnsongrass; test: Postemergence Herbicidal Activity, Johnsongrass; settings: Sorghum halepense, post-emergence
From the text: as §2

[17] = tested on: Velvetleaf; test: Postemergence Herbicidal Activity, Velvetleaf; settings: Abutilon theophrasti, post-emergence
From the text: as §1

[18] = tested on: Green Foxtail; test: Preemergence Herbicidal Activity, Green Foxtail; settings: Setaria viridis, pre-emergence
From the text: as §2

[19] = tested on: Morningglory; test: Preemergence Herbicidal Activity, Morningglory; settings: Ipomoea, pre-emergence
From the text: as §1

[20] = tested on: Wheat; test: Preemergence Herbicidal Activity, Wheat; settings: Triticum aestivum, pre-emergence
From the text: as §2

[21] = tested on: Field Bindweed; test: Preemergence Herbicidal Activity, Field Bindweed; settings: pre-emergence
From the text: as §1

[22] = tested on: Rice; test: Postemergence Herbicidal Activity, Rice; settings: Oryza sativa, post-emergence
From the text: as §2

In the case of `CCCS(=O)(=O)N(c1cc(-n2nnn(CCCF)c2=O)ccc1Cl)S(=O)(=O)CCC` [Compound 23], the pest or weed control at 8000 g/ha [1] is reported as 50%, the plant injury at 8000 g/ha ([2]; 8.0 kg/ha) is reported as 60% and the plant injury at 8000 g/ha ([3]; 8.0 kg/ha) is reported as 40%. The plant injury at 8000 g/ha ([4]; 8.0 kg/ha) was 20%, the pest or weed control at 8000 g/ha ([5]; 8.0 kg/ha) was 50% and the plant injury at 8000 g/ha ([6]; 8.0 kg/ha) was 30%. It also gave a pest or weed control at 8000 g/ha ([7]; 8.0 kg/ha) of 80%, a plant injury at 8000 g/ha ([8]; 8.0 kg/ha) of 30% and a plant injury at 8000 g/ha ([9]; 8.0 kg/ha) of 90%. For the same compound, the plant injury at 8000 g/ha ([10]; 8.0 kg/ha) was 20%, the plant injury at 8000 g/ha ([11]; Glycine max, pre-emergence, 8.0 kg/ha) was 10% and the pest or weed control at 8000 g/ha ([12]; Ipomoea, post-emergence, 8.0 kg/ha) was 60%. For the same compound, the pest or weed control at 8000 g/ha ([13]; 8.0 kg/ha) was 40%, the pest or weed control at 8000 g/ha ([14]; 8.0 kg/ha) was 100% and the pest or weed control at 8000 g/ha ([15]; 8.0 kg/ha) was 40%. For the same compound, the pest or weed control at 8000 g/ha ([16]; 8.0 kg/ha) was 40%, the pest or weed control at 8000 g/ha ([17]; 8.0 kg/ha) was 100% and the pest or weed control at 8000 g/ha ([18]; 8.0 kg/ha) was 95%. The pest or weed control at 8000 g/ha ([19]; 8.0 kg/ha) was 70%, the plant injury at 8000 g/ha ([20]; 8.0 kg/ha) was 40% and the pest or weed control at 8000 g/ha ([21]; 8.0 kg/ha) was 70%.

In the case of `CCCS(=O)(=O)N(c1cc(-n2nnn(CCCF)c2=O)c(F)cc1Cl)S(=O)(=O)CCC` [Compound 26, 1-[4-chloro-2-fluoro-5-[bis(N--propylsulfonyl)amino]phenyl]-1,4-dihydro-4-(3-fluoropropyl)-5H--tetrazol-5-one], the plant injury at 500 g/ha ([22]; 0.5 kg/ha) is reported as 40%, the plant injury at 500 g/ha ([2]; 0.5 kg/ha) is reported as 100% and the plant injury at 500 g/ha ([3]; 0.5 kg/ha) is reported as 50%. For the same compound, the plant injury at 500 g/ha ([4]; 0.5 kg/ha) was 20%, the pest or weed control at 500 g/ha ([5]; 0.5 kg/ha) was 95% and the plant injury at 500 g/ha ([6]; 0.5 kg/ha) was 100%. It also gave a pest or weed control at 500 g/ha ([7]; 0.5 kg/ha) of 100%, a plant injury at 500 g/ha ([8]; 0.5 kg/ha) of 50% and a plant injury at 500 g/ha ([9]; 0.5 kg/ha) of 90%. It also gave a plant injury at 500 g/ha ([10]; 0.5 kg/ha) of 90%, a plant injury at 500 g/ha ([11]; Glycine max, pre-emergence, 0.5 kg/ha) of 0% and a pest or weed control at 500 g/ha ([12]; Ipomoea, post-emergence, 0.5 kg/ha) of 100%. It also gave a pest or weed control at 500 g/ha ([13]; 0.5 kg/ha) of 80%, a pest or weed control at 500 g/ha ([14]; 0.5 kg/ha) of 100% and a pest or weed control at 500 g/ha ([15]; 0.5 kg/ha) of 80%. It also gave a pest or weed control at 500 g/ha ([16]; 0.5 kg/ha) of 70%, a pest or weed control at 500 g/ha ([17]; 0.5 kg/ha) of 100% and a pest or weed control at 500 g/ha ([18]; 0.5 kg/ha) of 60%. It also gave a pest or weed control at 500 g/ha ([19]; 0.5 kg/ha) of 60% and a plant injury at 500 g/ha ([20]; 0.5 kg/ha) of 60%.

Work on `CCS(=O)(=O)Nc1cc(-n2nnn(CCCF)c2=O)c(F)cc1Cl` [Compound 31, 1-[4-Chloro-2-fluoro-5-(N--ethylsulfonylamino)phenyl]-1,4-dihydro-4-(3-fluoropropyl)-5H--tetrazol-5-one potassium salt] yielded a plant injury at 250 g/ha ([22]; 0.25 kg/ha) of 40%, a plant injury at 250 g/ha ([3]; 0.25 kg/ha) of 80% and a plant injury at 250 g/ha ([4]; 0.25 kg/ha) of 40%. It also gave a pest or weed control at 250 g/ha ([5]; 0.25 kg/ha) of 70%, a plant injury at 250 g/ha ([6]; 0.25 kg/ha) of 30% and a pest or weed control at 250 g/ha ([7]; 0.25 kg/ha) of 95%. It also gave a plant injury at 250 g/ha ([8]; 0.25 kg/ha) of 100%, a plant injury at 250 g/ha ([9]; 0.25 kg/ha) of 30% and a plant injury at 250 g/ha ([10]; 0.25 kg/ha) of 40%. For the same compound, the “Preemergence Herbicidal Activity” value ([11]; 0.25 kg/ha, potassium salt) was 10 % Control, the “Postemergence Herbicidal Activity” value ([12]; 0.25 kg/ha, potassium salt) was 100 % Control and the pest or weed control at 250 g/ha ([13]; 0.25 kg/ha) was 60%. The pest or weed control at 250 g/ha ([14]; 0.25 kg/ha) was 100%, the pest or weed control at 250 g/ha ([15]; 0.25 kg/ha) was 80% and the pest or weed control at 250 g/ha ([16]; 0.25 kg/ha) was 60%. For the same compound, the pest or weed control at 250 g/ha ([18]; 0.25 kg/ha) was 50%, the pest or weed control at 250 g/ha ([19]; 0.25 kg/ha) was 100% and the plant injury at 250 g/ha ([20]; 0.25 kg/ha) was 20%. It also gave a pest or weed control at 250 g/ha ([21]; 0.25 kg/ha) of 100%.

With `CCS(=O)(=O)N(c1cc(-n2nnn(C)c2=O)c(F)cc1Cl)S(=O)(=O)CC` [Compound 41, 1-[4-Chloro-2-fluoro-5-[bis(N--ethylsulfonyl)amino]phenyl]-4,5-dihydro-4-methyl-5H--tetrazol-5-one] the plant injury at 2000 g/ha ([4]; 2.0 kg/ha) was 10%, the pest or weed control at 2000 g/ha ([5]; 2.0 kg/ha) was 20% and the pest or weed control at 2000 g/ha ([7]; 2.0 kg/ha) was 80%. The plant injury at 2000 g/ha ([8]; 2.0 kg/ha) was 95%, the plant injury at 2000 g/ha ([9]; 2.0 kg/ha) was 40% and the plant injury at 2000 g/ha ([11]; Glycine max, pre-emergence, 2.0 kg/ha) was 50%. The pest or weed control at 2000 g/ha ([14]; 2.0 kg/ha) was 100%, the pest or weed control at 2000 g/ha ([18]; 2.0 kg/ha) was 95% and the pest or weed control at 2000 g/ha ([19]; 2.0 kg/ha) was 100%. The plant injury at 2000 g/ha ([20]; 2.0 kg/ha) was 10% and the pest or weed control at 2000 g/ha ([21]; 2.0 kg/ha) was 100%.
